From the NIST ThermoML archive (doi:10.1016/j.fluid.2014.09.014)

Assay: refractive index (other wavelength) (dimensionless); xn = mol fraction of the nth substance listed
Details: 308.15 K, 101 kPa, Liquid, Standard Abbe refractometry

CC(C)OC(C)C [diisopropyl ether] + CC(C)O
refractive index
Details	Wavelength=546.1 nm	Wavelength=587.6 nm	Wavelength=589.3 nm	Wavelength=632.8 nm
x1 = 0.0277	–	1.37065	1.37059	1.36929
x1 = 0.0507	–	1.37059	1.37053	1.36924
x1 = 0.051	–	1.37053	1.37047	1.36917
x1 = 0.0717	–	1.37072	1.37014	1.36886
x1 = 0.1528	–	1.36953	1.36947	1.3682
x1 = 0.1553	–	1.36953	1.36947	1.3682
x1 = 0.1938	–	1.36925	1.36919	1.36792
x1 = 0.2029	–	1.3688	1.36875	1.36748
x1 = 0.245	–	1.36837	1.36832	1.36706
x1 = 0.297	–	1.36764	1.36759	1.36631
x1 = 0.2973	1.36932	1.36785	1.3678	1.36653
x1 = 0.3068	1.36857	1.36754	1.36751	1.36624
x1 = 0.398	1.36775	1.36628	1.36623	1.36496
x1 = 0.4609	1.36707	1.3656	1.36554	1.36427
x1 = 0.5434	1.3662	1.36473	1.36467	1.36338
x1 = 0.6032	1.3655	1.36404	1.36398	1.36271
x1 = 0.6371	1.36515	1.36369	1.36363	1.36235
x1 = 0.701	1.36441	1.36297	1.36292	1.36166
x1 = 0.754	1.36401	1.36256	1.36251	1.36125
x1 = 0.791	1.36358	1.36215	1.36209	1.36085
x1 = 0.8296	1.36323	1.36178	1.36173	1.36048
x1 = 0.8864	1.363	1.36156	1.36151	–
x1 = 0.8903	1.36256	1.36111	1.36106	–
x1 = 0.9113	1.36232	1.36088	1.36082	–
x1 = 0.9547	1.36187	1.36041	1.36036	–
x1 = 0.973	1.36152	1.36008	1.36002	–
x1 = 0.9771	1.36139	1.35994	1.35989	–
x1 = 1	1.36127	1.35975	1.35983	–
